Several values for one entry are separate records, joined by “and”; a condition that tells them apart may be missing. Equal values may be shown once. Inconclusive results and toxic doses are left out. Rule for the calls: active = survival T/C of 150% or more; inactive = T/C below 125% in these data.
System: P388 leukemia ip, CD2F1 mice, survival T/C
Assay: NCI In Vivo Anticancer Drug Screen. Data for tumor model P388 Leukemia (intraperitoneal) in CD2F1 (CDF1) mice
Conditions: endpoint: median survival time, higher = longer survival
How it was run: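 Mice carrying the transplanted tumor received test compound or vehicle. Survival was recorded in each group, and the value is the treated-group measurement divided by that of the vehicle-treated control group.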

[1] = dose: 50.0 mg/kg/injection, schedule: Q01DX009 (ip), vehicle: Klucel (hydroxypropylcellulose) (HPC)
[2] = dose: 100.0 mg/kg/injection, schedule: Q01DX005 (ip), vehicle: Klucel (hydroxypropylcellulose) (HPC)
[3] = dose: 100.0 mg/kg/injection, schedule: Q01DX009 (ip), vehicle: Klucel (hydroxypropylcellulose) (HPC)
[4] = dose: 100.0 mg/kg/injection, schedule: Q01DX009 (ip), vehicle: saline with Tween-80
[5] = dose: 200.0 mg/kg/injection, schedule: Q01DX009 (ip), vehicle: saline with Tween-80
[6] = dose: 60.0 mg/kg/injection, schedule: Q01DX005 (ip), vehicle: saline with Tween-80
[7] = dose: 120.0 mg/kg/injection, schedule: Q01DX005 (ip), vehicle: saline with Tween-80
[8] = dose: 240.0 mg/kg/injection, schedule: Q01DX005 (ip), vehicle: saline with Tween-80
[9] = dose: 50.0 mg/kg/injection, schedule: Q01DX009 (ip), vehicle: saline with Tween-80
[10] = dose: 50.0 mg/kg/injection, schedule: Q01DX005 (ip), vehicle: Klucel (hydroxypropylcellulose) (HPC)
[11] = dose: 50.0 mg/kg/injection, schedule: Q04DX003 (ip), vehicle: saline with Tween-80
[12] = dose: 100.0 mg/kg/injection, schedule: Q04DX003 (ip), vehicle: saline with Tween-80
[13] = dose: 25.0 mg/kg/injection, schedule: Q01DX009 (ip), vehicle: saline with Tween-80

Measured: T/C

Cc1cccc(-c2cc3cccnc3nc2NN=O)c1C
inactive: dose: 3.12 mg/kg/injection, schedule: Q01DX009 (ip), vehicle: water 106 % of control | dose: 6.25 mg/kg/injection, schedule: Q01DX009 (ip), vehicle: water 105 % of control and 122 % of control | dose: 12.5 mg/kg/injection, schedule: Q01DX009 (ip), vehicle: water 111 % of control | dose: 50.0 mg/kg/injection, schedule: Q01DX009 (ip), vehicle: water 106 % of control and 121 % of control | dose: 100.0 mg/kg/injection, schedule: Q01DX009 (ip), vehicle: water 93 % of control

CCCC(NC(=O)OCc1ccccc1)C(=O)NC(C)C(=O)O (stereo not given)
inactive: dose: 25.0 mg/kg/injection, schedule: Q01DX009 (ip), vehicle: Klucel (hydroxypropylcellulose) (HPC) 104 % of control | [1] 105 % of control | [2] 100 % of control | [3] 106 % of control

NC(CCC(=O)O)(C(=O)O)c1ccccc1 (stereo not given)
inactive: dose: 0.19 mg/kg/injection, schedule: Q01DX009 (ip), vehicle: saline 101 % of control | dose: 0.38 mg/kg/injection, schedule: Q01DX009 (ip), vehicle: saline 104 % of control | dose: 0.75 mg/kg/injection, schedule: Q01DX009 (ip), vehicle: saline 100 % of control | dose: 1.5 mg/kg/injection, schedule: Q01DX009 (ip), vehicle: saline with Tween-80 98 % of control | dose: 1.5 mg/kg/injection, schedule: Q01DX009 (ip), vehicle: saline 109 % of control | dose: 3.0 mg/kg/injection, schedule: Q01DX009 (ip), vehicle: saline with Tween-80 98 % of control | [4] 92 % of control | [5] 93 % of control

Nc1ncnc2c1c(-c1ccccc1)cn2-c1ccc(Br)cc1
inactive: [6] 108 % of control | [7] 100 % of control | [8] 96 % of control

O=C(O)c1ccccc1N=N/C(=N\Nc1ccccc1C(=O)O)c1ccnc2ccccc12
inactive: [9] 100 % of control | [4] 97 % of control | [5] 103 % of control

OC1(O)CCCCN1Cc1ccccc1
inactive: dose: 25.0 mg/kg/injection, schedule: Q01DX005 (ip), vehicle: saline 103 % of control | dose: 50.0 mg/kg/injection, schedule: Q01DX005 (ip), vehicle: saline 101 % of control | dose: 100.0 mg/kg/injection, schedule: Q01DX005 (ip), vehicle: saline 100 % of control | dose: 200.0 mg/kg/injection, schedule: Q01DX005 (ip), vehicle: saline 107 % of control

NC(=O)NC(=O)C(Cc1ccc(Cl)cc1)c1ccccc1 (stereo not given)
inactive: dose: 30.0 mg/kg/injection, schedule: Q01DX005 (ip), vehicle: saline with Tween-80 96 % of control and 97 % of control | [6] 89 % of control and 94 % of control | [7] 87 % of control and 89 % of control | [8] 88 % of control

O=c1[nH]cnc2nc(N3CCOCC3)sc12
inactive: dose: 50.0 mg/kg/injection, schedule: Q01DX005 (ip), vehicle: saline with Tween-80 93 % of control | [7] 96 % of control | dose: 200.0 mg/kg/injection, schedule: Q01DX005 (ip), vehicle: saline with Tween-80 95 % of control

COC(=O)C1(C)C(OC(C)=O)CC2C3C(CC4CC(OC(C)=O)CCC42C)OC(=O)CC31 (stereo not given)
inactive: dose: 0.25 mg/kg/injection, schedule: Q01DX009 (ip), vehicle: distilled water + Tween-80 99 % of control | dose: 0.5 mg/kg/injection, schedule: Q01DX009 (ip), vehicle: distilled water + Tween-80 101 % of control | dose: 1.0 mg/kg/injection, schedule: Q01DX009 (ip), vehicle: distilled water + Tween-80 102 % of control | dose: 2.0 mg/kg/injection, schedule: Q01DX009 (ip), vehicle: distilled water + Tween-80 104 % of control | dose: 4.0 mg/kg/injection, schedule: Q01DX009 (ip), vehicle: distilled water + Tween-80 100 % of control and 104 % of control | dose: 8.0 mg/kg/injection, schedule: Q01DX009 (ip), vehicle: distilled water + Tween-80 106 % of control and 111 % of control | dose: 16.0 mg/kg/injection, schedule: Q01DX009 (ip), vehicle: distilled water + Tween-80 94 % of control | dose: 32.0 mg/kg/injection, schedule: Q01DX009 (ip), vehicle: distilled water + Tween-80 87 % of control | dose: 64.0 mg/kg/injection, schedule: Q01DX009 (ip), vehicle: distilled water + Tween-80 100 % of control

NC(=S)NNC(=O)c1cccs1
inactive: [6] 108 % of control | [7] 100 % of control | [8] 99 % of control

S=C(Nc1ccccc1)P(C(=S)Nc1ccccc1)C1CCCCC1
inactive: [10] 108 % of control | [2] 101 % of control | dose: 200.0 mg/kg/injection, schedule: Q01DX005 (ip), vehicle: Klucel (hydroxypropylcellulose) (HPC) 99 % of control

C/C1=C\C[C@@H](O)/C(C)=C/[C@H]2OC(=O)[C@H](C)[C@@H]2CC1
inactive: dose: 8.75 mg/kg/injection, schedule: Q01DX005 (ip), vehicle: Klucel (hydroxypropylcellulose) (HPC) 94 % of control | dose: 17.5 mg/kg/injection, schedule: Q01DX005 (ip), vehicle: Klucel (hydroxypropylcellulose) (HPC) 102 % of control | dose: 35.0 mg/kg/injection, schedule: Q01DX005 (ip), vehicle: Klucel (hydroxypropylcellulose) (HPC) 100 % of control | dose: 70.0 mg/kg/injection, schedule: Q01DX005 (ip), vehicle: Klucel (hydroxypropylcellulose) (HPC) 86 % of control

FC(F)(F)C1(C(F)(F)F)OS2(F)(F)(OC(C(F)(F)F)(C(F)(F)F)c3ccccc32)c2ccccc21
inactive: dose: 25.0 mg/kg/injection, schedule: Q01DX005 (ip), vehicle: Klucel (hydroxypropylcellulose) (HPC) 92 % of control | [10] 95 % of control | [2] 94 % of control

CCc1cccc2c(NCCCCCCCCNc3c4ccccc4nc4c(CC)cccc34)c3ccccc3nc12
inactive: dose: 0.63 mg/kg/injection, schedule: Q01DX005 (ip), vehicle: other 110 % of control | dose: 1.25 mg/kg/injection, schedule: Q01DX005 (ip), vehicle: other 110 % of control | dose: 2.5 mg/kg/injection, schedule: Q01DX005 (ip), vehicle: other 122 % of control | dose: 3.75 mg/kg/injection, schedule: Q01DX005 (ip), vehicle: other 104 % of control | dose: 5.0 mg/kg/injection, schedule: Q01DX005 (ip), vehicle: other 113 % of control | dose: 7.5 mg/kg/injection, schedule: Q01DX005 (ip), vehicle: other 118 % of control | dose: 10.0 mg/kg/injection, schedule: Q## X009 (ip), vehicle: lactic acid 110 % of control

Nc1ccc(C(=O)O)c(C(=O)O)c1
inactive: [9] 100 % of control | [11] 91 % of control | [4] 104 % of control | [12] 91 % of control | [5] 100 % of control | dose: 200.0 mg/kg/injection, schedule: Q04DX003 (ip), vehicle: saline with Tween-80 91 % of control

COc1ccc(/C=C2\SC(=S)NC2=O)cc1OC
inactive: [1] 94 % of control | [3] 92 % of control | dose: 200.0 mg/kg/injection, schedule: Q01DX009 (ip), vehicle: Klucel (hydroxypropylcellulose) (HPC) 94 % of control | dose: 400.0 mg/kg/injection, schedule: Q01DX009 (ip), vehicle: Klucel (hydroxypropylcellulose) (HPC) 91 % of control

CC(C(=O)N1c2ccccc2Sc2ccccc21)[N+](C)(C)C (stereo not given)
inactive: dose: 12.5 mg/kg/injection, schedule: Q01DX009 (ip), vehicle: saline with Tween-80 110 % of control | [13] 110 % of control | [9] 100 % of control

O=S1(=O)N2CN3CN(C2)CN1C3
inactive: dose: 6.25 mg/kg/injection, schedule: Q04DX003 (ip), vehicle: Klucel (hydroxypropylcellulose) (HPC) 106 % of control | dose: 12.5 mg/kg/injection, schedule: Q04DX003 (ip), vehicle: Klucel (hydroxypropylcellulose) (HPC) 104 % of control | dose: 25.0 mg/kg/injection, schedule: Q04DX003 (ip), vehicle: Klucel (hydroxypropylcellulose) (HPC) 111 % of control | dose: 50.0 mg/kg/injection, schedule: Q04DX003 (ip), vehicle: Klucel (hydroxypropylcellulose) (HPC) 106 % of control

CC(c1ccccc1)N1C(=O)CSC1=S (stereo not given)
inactive: [13] 100 % of control | [9] 100 % of control | [4] 100 % of control | [5] 100 % of control

C=CN1C(=O)NC2(CCCCC2)C1=O
inactive: dose: 25.0 mg/kg/injection, schedule: Q04DX003 (ip), vehicle: saline with Tween-80 100 % of control | [11] 100 % of control | [12] 90 % of control

O=C(C=C(C(F)(F)F)C(F)(F)F)c1ccc([N+](=O)[O-])cc1
inactive: dose: 3.13 mg/kg/injection, schedule: Q04DX003 (ip), vehicle: other 100 % of control | dose: 6.25 mg/kg/injection, schedule: Q04DX003 (ip), vehicle: other 109 % of control | dose: 12.5 mg/kg/injection, schedule: Q04DX003 (ip), vehicle: other 118 % of control

Source: PubChem BioAssay AID330 (DTP/NCI, 2004)
